What was measured:
[1] = Particle size and surface potential of pDNA-encapsulating MENDs, dynamic light scattering (Zetasizer Nano); format: physicochemical
Protocol: A solution of pDNA encoding luciferase gene and protamine (CALBIOCHEM) solution were diluted with 10 mM HEPES buffer to 0.3 mg/mL and […], respectively. While stirring 0.3 mg/mL pDNA (125 μL), 0.24 mg/mL protamine (125 μL) was added dropwise in small portions to prepared an electrostatic complex of protamine and pDNA (N/P ratio=1.2) as a core of the vector. In the method described in the following (2), 10 mM HEPES buffer (pH 5.3) was used and, in the method described in (3), 10 mM HEPES buffer (pH 7.4) was used.
A lipid solution in ethanol was prepared by mixing 5 mM cationic lipid, 5 mM phospholipid and 5 mM cholesterol (Chol) at desired ratios to achieve 165 nmol total lipid in an Eppendorf tube, further adding various PEG lipids (1 mM solution in ethanol) in an amount corresponding to 3 mol % of the total lipid, and adding ethanol to achieve a total volume of 100 μL. While stirring the lipid solution in a vortex mixer, 100 μL of the nucleic acid electrostatic complex (10 mM HEPES; pH 5.3) prepared in [Experimental Example 1] (1) was quickly added, and thereafter 10 mM HEPES buffer (1.8 mL, adjusted to pH 5.3) was added to dilute the mixture to an ethanol concentration of 5%. The mixture was concentrated to about 50 μL by ultrafiltration using Amicon Ultra 4 (Millipore) under centrifugation conditions (room temperature, 2267 rpm, 20 min). Thereafter, it was diluted to 4 mL with 100 mM HEPES buffer (adjusted to pH 7.4), and again concentrated by centrifugation (2267 rpm, 20 min) under room temperature conditions. Finally, it was diluted with 10 mM HEPES buffer (pH 7.4) to a desired lipid concentration.
A solution of each lipid in chloroform (5 mM DOTAP 24.75 μL, 5 mM DOPE 33 μL, 5 mM Chol 24.75 μL) were mixed in a glass test tube at DOTAP:DOPE:Chol=3:4:3 to achieve 412.5 nmol total lipid. Ethanol was added to a total amount of 250 μL, and the mixture was dried under reduced pressure in a desiccator. The solvent was evaporated to give a lipid thin film. To the lipid thin film was added 250 μL of the gene electrostatic complex (in 10 mM HEPES; pH 7.4) prepared in [Experimental Example 1] (1) to a total lipid concentration of 1.65 mM, and the mixture was stood at room temperature for 10 min to allow for hydration, and sonicated by a sonicator (AIWA MEDICAL […] CO., LTD.) for 1 min.
The particle size and the surface potential were measured by the dynamic light scattering method (Zetasizer Nano; Malve Rn). The particle size and the surface potential of the various MENDs prepared by the preparation method of [Experimental Example 1] are shown in Table 3. The charge of B-2 and DODAP at physiological pH was in a preferable mode of −10 to +10 mV, whereas that of B-2-1 was +12.3, which is not less than +10 mV.
(1) MEND having a composition of B-2-4 (Example 4):DOPE:Chol=3:3:4 or B-2-5 (Example 5):POPE:Chol=3:4:3 was prepared according to the method described in [Experimental Example 1] (1) and (2).
The particle size and the surface potential were measured by the dynamic light scattering method (Zetasizer Nano; Malvern). The particle size and the surface potential of the various MENDs prepared by the preparation method of [Experimental Example 1] are shown in Table 4.

HT1080 cells = experiment: Intracellular kinetics: endosomal escape of rhodamine-labeled pDNA (confocal microscopy); format: cell-based; settings: for gene endosomal escape efficiency, quantified (order): FIG. 7; for endosomal escape potency (colocalization of pDNA red and endosome/lysosome green): cationic lipid:SOPE:Chol=5:3:2 or DOTAP:DOPE:Chol=3:4:3, 3 hr after transfection
Protocol: For MEND preparation, the Rhodamine-labeled pDNA prepared by the method of [Experimental Example 1] (4) was used. MEND having a composition of cationic lipid:SOPE:Chol=5:3:2 was prepared by the method described in [Experimental Example 1] (2). For the preparation, PEG2000-DMG was used as PEG lipid, and MEND solutions corresponding to 0.55 mM of the lipid concentration were prepared. For cationic MEND, lipids having a composition of DOTAP (Comparative Example 3):DOPE:Chol:=3:4:3 were used, and the cationic MEND was prepared according to the method described in [Experimental Example 1] (3). In addition, cationic MEND having a lipid composition of DOTAP:DOPE:Chol:=3:4:3 was also prepared by a simple hydration method to have a lipid concentration of 0.55 mM.
HT1080 cells were plated on a glass bottom dish at 1×10^5 cells/2 mL/dish 24 hr before. Since MENDs composed of B-2 or DODAP show low uptake activity into cells, MEND was diluted with Krebs buffer to pDNA 8 μg/1 mL Krebs buffer/dish. As for B-2-1 or DOTAP MEND having a high uptake activity, MEND was diluted with Krebs buffer to pDNA 1.6 μg/1 mL Krebs buffer/dish and transfected into the cells. After 2.5 hr, Lysotracker Green (Life technologies) was added at 1 μL/dish and, 30 min later, Hoechst 33342 (Dojindo) was further added at 1 μL/dish. 3 hr after the transfection, the cells were washed twice with heparin (20 units/mL, 2 mL), Krebs buffer (1 mL) was added, and the mixture was observed by a confocal laser scan microscope.
Rhodamine-labeled pDNA, endosome/lysosome, and nucleus were shown in pseudo colors of red, green and blue, respectively. The endosomal escape potency was evaluated by the colocalization of red and green. […] Furthermore, the gene endosomal escape efficiency was quantified to find higher efficiency in the order of DODAP<B-2-1<B-2.

[2] = pDNA MEND, cationic lipid:SOPE:Chol = 3:4:3
[3] = pDNA MEND, cationic lipid:SOPE:Chol = 5:3:2
[4] = pDNA MEND, DOTAP:DOPE:Chol = 3:4:3
[5] = pDNA MEND, cationic lipid:DOPE:Chol = 3:3:4
[6] = pDNA MEND, cationic lipid:POPE:Chol = 3:4:3

| SMILES | PDI [1, 2] | size (nm) [1, 2] [nm] | zeta (mV) [1, 2] [mV] | PDI [1, 3] | size (nm) [1, 3] [nm] | zeta (mV) [1, 3] [mV] | gene endosomal escape efficiency, quantified (order) (HT1080 cells) | endosomal escape potency (colocalization of pDNA red and endosome/lysosome green) (HT1080 cells) | other results |
| --- | --- | --- | --- | --- | --- | --- | --- | --- | --- |
| CCCCCCCC/C=C\CCCCCCCC(=O)OCC(CN(C)C)OC(=O)CCCCCCC/C=C\CCCCCCCC (stereo not drawn) [DODAP, reference compound] | 0.093 | 151.1 | −3.18 | 0.106 | 165.6 | 4.13 | DODAP<B-2-1<B-2 | colocalization of red and green was notable | – |
| CCCCCCCC/C=C\CCCCCCCC(=O)OCC(C[N+](C)(C)C)OC(=O)CCCCCCC/C=C\CCCCCCCC (stereo not drawn) [DOTAP, reference compound] | – | – | – | – | – | – | – | red signal alone was present | surface potential of MEND ([1]; pDNA MEND using DOTAP): about +50 mV; PDI [1, 4]: 0.295; size (nm) [1, 4]: 235.8 nm; zeta (mV) [1, 4]: 57.9 mV |
| CCCCCCCCCCCCCC(=O)OCCCN(C)CCCCCCN(C)CCCOC(=O)CCCCCCCCCCCCC [Example B-2-1, reference compound] | 0.07 | 150.3 | 12.4 | 0.084 | 147.8 | 12.3 | DODAP<B-2-1<B-2 | red signal alone was present | charge at physiological pH ([1]; pDNA MEND): +12.3 mV |
| CC1=C(/C=C/C(C)=C/C=C/C(C)=C/C(=O)OCCCN(C)CCSSCCN(C)CCCOC(=O)/C=C(C)/C=C/C=C(C)/C=C/C2=C(C)CCCC2(C)C)C(C)(C)CCC1 [Example B-2-4] | – | – | – | – | – | – | – | – | PDI [1, 5]: 0.12; size (nm) [1, 5]: 146.7 nm; zeta (mV) [1, 5]: −7.22 mV |
| Cc1c(C)c2c(c(C)c1OC(=O)CCC(=O)OCCCN(C)CCSSCCN(C)CCCOC(=O)CCC(=O)Oc1c(C)c(C)c3c(c1C)CCC(C)(CCCC(C)CCCC(C)CCCC(C)C)O3)CCC(C)(CCCC(C)CCCC(C)CCCC(C)C)O2 (stereo not drawn) [Example B-2-5] | – | – | – | – | – | – | – | – | PDI [1, 6]: 0.15; size (nm) [1, 6]: 131.7 nm; zeta (mV) [1, 6]: −9.35 mV |
| CCCCCCCCCCCCCC(=O)OCCCN(C)CCSSCCN(C)CCCOC(=O)CCCCCCCCCCCCC [Example B-2] | 0.14 | 156.3 | −0.08 | 0.11 | 168.9 | −2.95 | DODAP<B-2-1<B-2 | red signal alone was present | – |
